Assay results published in ChEMBL document CHEMBL1201862, “PubChem BioAssay data set” (2004).
Values belong to the compound of their own block, whether it stands above or below them. Active and inactive are the calls of the source.

How the values were obtained:
Aminopeptidase N = target: T1, Aminopeptidase N (Plasmodium falciparum FcB1/Columbia, UniProt O96935); assay: malaria alanyl aminopeptidase activity blockers – biochemical, fluorogenic H-Leu-NHMec substrate, 1536-well (AID 1445); parameters: species or system Plasmodium falciparum 3D7, 3D7
T1 sequence (O96935 whole entry): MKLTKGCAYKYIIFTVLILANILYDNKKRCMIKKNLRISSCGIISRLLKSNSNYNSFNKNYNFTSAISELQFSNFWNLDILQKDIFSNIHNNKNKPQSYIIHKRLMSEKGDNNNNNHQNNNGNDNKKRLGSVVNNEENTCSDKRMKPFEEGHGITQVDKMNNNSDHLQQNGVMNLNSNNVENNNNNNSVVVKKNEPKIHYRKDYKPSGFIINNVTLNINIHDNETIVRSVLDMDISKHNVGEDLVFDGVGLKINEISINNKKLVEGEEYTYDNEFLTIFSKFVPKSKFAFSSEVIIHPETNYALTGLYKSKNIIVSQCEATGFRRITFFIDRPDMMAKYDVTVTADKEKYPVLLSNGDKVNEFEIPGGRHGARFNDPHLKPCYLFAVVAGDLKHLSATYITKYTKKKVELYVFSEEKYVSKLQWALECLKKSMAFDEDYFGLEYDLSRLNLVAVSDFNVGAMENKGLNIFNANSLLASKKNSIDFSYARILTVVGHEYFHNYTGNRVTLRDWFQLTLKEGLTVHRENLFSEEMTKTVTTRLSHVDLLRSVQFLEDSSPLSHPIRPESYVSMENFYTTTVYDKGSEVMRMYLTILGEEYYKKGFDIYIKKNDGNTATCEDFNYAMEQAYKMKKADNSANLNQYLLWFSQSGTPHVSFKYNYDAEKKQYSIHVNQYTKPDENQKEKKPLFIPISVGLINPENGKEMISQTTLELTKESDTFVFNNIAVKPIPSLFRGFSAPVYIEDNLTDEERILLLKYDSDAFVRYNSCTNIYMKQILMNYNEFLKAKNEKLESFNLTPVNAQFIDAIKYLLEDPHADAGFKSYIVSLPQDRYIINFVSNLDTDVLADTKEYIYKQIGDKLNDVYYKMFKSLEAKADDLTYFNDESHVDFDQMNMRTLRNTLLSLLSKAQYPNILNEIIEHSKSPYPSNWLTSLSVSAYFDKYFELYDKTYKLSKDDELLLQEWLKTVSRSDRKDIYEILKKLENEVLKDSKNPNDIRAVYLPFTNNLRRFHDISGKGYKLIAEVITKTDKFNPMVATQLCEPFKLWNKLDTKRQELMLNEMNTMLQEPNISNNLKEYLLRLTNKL

H9c2 = assay: cells; assay type: functional, cell-based; details: Rattus norvegicus, H9c2, Myocardium;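 also: confirmatory concentration-response retest of ultra-high-throughput screening hits for modulation of myocardial damage; cell death induced by hydrogen peroxide oxidative stress; compound pretreatment for 60 min then peroxide exposure for 2 h; potency is for protecting the cells against peroxide damage rather than for killing them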
[1] = viability of PTEN-deleted HCT116 cells – cell-based, HCT116 PTEN knockout, dose response (AID 1047); assay type: functional;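 also: HCT116 colon tumor cells with PTEN knocked out; cells exposed to compound for 60 hours before readout; potency for loss of cell viability measured by luminescence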
[2] = viability of HCT116 lacking mutant beta-catenin – cell-based, human colon tumor, dose response (AID 1045); assay type: functional;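 also: HCT116 colon tumor cells with beta catenin knocked out; cells exposed to compound for 60 hours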
[3] = target: Glucose-6-phosphate 1-dehydrogenase (Homo sapiens, UniProt P11413); assay: inhibition of Homo sapiens G6PD, dose series – biochemical, fluorescence, selectivity assay for P. falciparum G6PD inhibitor project, dose response (AID 504792); assay type: functional
[4] = target: FAD-linked sulfhydryl oxidase ALR (Homo sapiens, UniProt P55789); assay: ALR-catalysed DTT oxidation blockers – biochemical, H2O2 detection, luminescence, cherry-pick, dose response (AID 493248)
Large T antigen = Large T antigen (Simian virus 40, UniProt P03070); assay type: functional, Betapolyomavirus macacae;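 also: Confirmatory-stage PubChem screen for compounds that inhibit SV40 T antigen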
[5] = target: T2, RNA-binding protein pos-1 (Caenorhabditis elegans, UniProt G5EF15); assay: disruptors of C. elegans POS-1 RNA interaction – biochemical, fluorescence polarization, dose response (AID 1964);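 also: purified POS-1 fused to maltose binding protein made in E. coli; potency of compounds blocking POS-1 binding to fluorescent RNA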
T2 sequence (G5EF15 whole entry): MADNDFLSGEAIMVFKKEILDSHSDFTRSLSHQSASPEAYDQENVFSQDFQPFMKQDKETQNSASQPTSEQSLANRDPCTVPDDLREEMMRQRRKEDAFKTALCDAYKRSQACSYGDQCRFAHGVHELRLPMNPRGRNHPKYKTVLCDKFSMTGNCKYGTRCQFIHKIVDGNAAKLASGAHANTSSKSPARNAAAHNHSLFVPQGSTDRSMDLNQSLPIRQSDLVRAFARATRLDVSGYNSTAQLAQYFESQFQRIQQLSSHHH

[6] = target: T3, Polyadenylate-binding protein 1 (Homo sapiens, UniProt P11940); assay: MLLE binding blockers, Cy5 peptide tracer – biochemical, fluorescence polarization, Cy5-PAM2 peptide, secondary, miRNA deadenylation inhibitor project, dose response (AID 602260); assay type: functional; details: read-out: IC50_Mean
[7] = target: T3, Polyadenylate-binding protein 1; assay: MLLE domain peptide-binding blockers, IC50 – biochemical, fluorescence polarization, FITC-PAM2 peptide, dose response (AID 602259); assay type: functional; details: read-out: IC50_Mean
[8] = target: T4, Zinc finger protein mex-5 (Caenorhabditis elegans, UniProt Q9XUB2); assay: potency of MEX-5 RNA-binding blockers – biochemical, C. elegans, fluorescence polarization, dose response (AID 1960)
T4 sequence (Q9XUB2 whole entry): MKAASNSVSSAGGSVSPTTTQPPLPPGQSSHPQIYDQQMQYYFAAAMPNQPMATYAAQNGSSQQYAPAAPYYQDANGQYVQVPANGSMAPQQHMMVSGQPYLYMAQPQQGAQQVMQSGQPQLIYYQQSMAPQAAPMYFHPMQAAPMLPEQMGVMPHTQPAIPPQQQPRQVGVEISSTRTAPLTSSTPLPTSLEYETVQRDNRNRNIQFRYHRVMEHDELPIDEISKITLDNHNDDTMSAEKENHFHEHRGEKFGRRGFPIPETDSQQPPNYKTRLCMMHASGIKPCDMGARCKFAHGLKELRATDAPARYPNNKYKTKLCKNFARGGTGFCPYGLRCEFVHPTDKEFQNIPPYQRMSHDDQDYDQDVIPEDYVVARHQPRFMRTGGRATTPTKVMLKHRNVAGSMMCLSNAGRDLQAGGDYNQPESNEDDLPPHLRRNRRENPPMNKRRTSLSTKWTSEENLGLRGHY

Cytochrome P450 2D6 = Cytochrome P450 2D6 (Homo sapiens, UniProt P10635);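 also: CYP2D6 member of a cytochrome P450 panel assay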
[9] = target: T5, Heat shock factor protein 1 (Mus musculus, UniProt P38532); assay: enhancement of HSF1-driven luciferase signal – cell-based, NIH3T3, luminescence, dose retest, confirmation (AID 435004); assay type: functional;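 also: stress induced by proteasome inhibitor MG132 added 30 min after compound; luciferase reporter driven by HSF1 response element in NIH3T3 cells; actives raise luminescence as potentiators of the MG132 stress response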
T5 sequence (P38532 whole entry): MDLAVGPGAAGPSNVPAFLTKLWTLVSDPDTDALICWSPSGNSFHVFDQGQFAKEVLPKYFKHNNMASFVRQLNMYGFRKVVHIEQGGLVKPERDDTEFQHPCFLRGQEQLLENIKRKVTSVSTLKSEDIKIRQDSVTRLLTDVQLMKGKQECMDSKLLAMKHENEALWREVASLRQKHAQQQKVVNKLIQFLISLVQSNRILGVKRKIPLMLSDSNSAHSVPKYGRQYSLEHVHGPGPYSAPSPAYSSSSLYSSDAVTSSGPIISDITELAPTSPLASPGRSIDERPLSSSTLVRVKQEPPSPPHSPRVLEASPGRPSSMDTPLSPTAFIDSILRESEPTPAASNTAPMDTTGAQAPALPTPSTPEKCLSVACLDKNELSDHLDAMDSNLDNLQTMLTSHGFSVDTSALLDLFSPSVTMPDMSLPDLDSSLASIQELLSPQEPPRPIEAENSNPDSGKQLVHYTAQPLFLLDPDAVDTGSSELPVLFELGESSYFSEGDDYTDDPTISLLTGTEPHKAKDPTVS

[10] = tested on: Streptococcus sp. 'group A'; assay: Streptococcus pyogenes SK(-)GAS viability under kanamycin – luminescence, BacTiterGlo, confirmation, counter-screen for streptokinase expression inhibitor project, dose response (AID 1900); assay type: functional, organism-based
Streptococcus = assay: GAS UMAA2166 growth inhibition – luminescence, BacTiterGlo, counter-screen for streptokinase expression inhibitor project, dose response (AID 1915); assay type: functional, organism-based;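 also: potency for reduction of bacterial viability or growth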

Chain of FAD-linked sulfhydryl oxidase ALR (P55789 whole entry): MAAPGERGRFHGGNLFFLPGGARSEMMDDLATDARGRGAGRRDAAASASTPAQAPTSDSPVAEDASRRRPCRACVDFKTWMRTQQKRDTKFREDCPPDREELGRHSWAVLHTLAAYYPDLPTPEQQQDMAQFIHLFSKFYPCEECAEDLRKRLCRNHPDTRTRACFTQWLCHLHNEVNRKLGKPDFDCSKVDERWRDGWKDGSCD
Chain of Glucose-6-phosphate 1-dehydrogenase (P11413 whole entry): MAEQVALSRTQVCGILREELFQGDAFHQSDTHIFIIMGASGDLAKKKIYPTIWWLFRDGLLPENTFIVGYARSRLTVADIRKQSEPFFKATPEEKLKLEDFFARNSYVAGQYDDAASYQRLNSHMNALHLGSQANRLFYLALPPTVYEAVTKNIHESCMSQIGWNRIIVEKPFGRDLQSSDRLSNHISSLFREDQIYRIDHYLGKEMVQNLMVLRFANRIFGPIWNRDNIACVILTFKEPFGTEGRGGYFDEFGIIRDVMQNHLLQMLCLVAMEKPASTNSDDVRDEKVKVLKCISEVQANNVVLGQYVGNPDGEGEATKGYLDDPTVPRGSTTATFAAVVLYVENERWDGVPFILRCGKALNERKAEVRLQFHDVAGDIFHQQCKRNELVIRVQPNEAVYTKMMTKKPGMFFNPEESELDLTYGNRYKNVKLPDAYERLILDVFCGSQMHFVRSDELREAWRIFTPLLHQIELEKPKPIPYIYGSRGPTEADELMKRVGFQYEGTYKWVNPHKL
T3 sequence (P11940 whole entry, the tested form may be a part): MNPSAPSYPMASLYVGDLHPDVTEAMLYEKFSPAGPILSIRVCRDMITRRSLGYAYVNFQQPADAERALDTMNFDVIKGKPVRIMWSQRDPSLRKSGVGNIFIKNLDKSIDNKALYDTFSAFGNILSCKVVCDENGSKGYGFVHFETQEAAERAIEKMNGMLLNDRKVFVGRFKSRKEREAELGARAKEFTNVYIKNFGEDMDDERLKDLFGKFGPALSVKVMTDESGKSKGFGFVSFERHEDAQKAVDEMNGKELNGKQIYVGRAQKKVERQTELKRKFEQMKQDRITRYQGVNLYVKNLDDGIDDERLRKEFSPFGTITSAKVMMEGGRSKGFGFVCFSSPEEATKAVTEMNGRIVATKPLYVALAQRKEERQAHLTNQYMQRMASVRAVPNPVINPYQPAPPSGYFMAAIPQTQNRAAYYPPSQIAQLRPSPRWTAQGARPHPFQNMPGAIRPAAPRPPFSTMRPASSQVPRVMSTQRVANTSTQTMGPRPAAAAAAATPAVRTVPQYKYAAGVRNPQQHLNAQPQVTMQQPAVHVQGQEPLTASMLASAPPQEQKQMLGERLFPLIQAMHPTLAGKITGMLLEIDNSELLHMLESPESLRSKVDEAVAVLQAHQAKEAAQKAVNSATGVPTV
Chain of Cytochrome P450 2D6 (P10635 whole entry): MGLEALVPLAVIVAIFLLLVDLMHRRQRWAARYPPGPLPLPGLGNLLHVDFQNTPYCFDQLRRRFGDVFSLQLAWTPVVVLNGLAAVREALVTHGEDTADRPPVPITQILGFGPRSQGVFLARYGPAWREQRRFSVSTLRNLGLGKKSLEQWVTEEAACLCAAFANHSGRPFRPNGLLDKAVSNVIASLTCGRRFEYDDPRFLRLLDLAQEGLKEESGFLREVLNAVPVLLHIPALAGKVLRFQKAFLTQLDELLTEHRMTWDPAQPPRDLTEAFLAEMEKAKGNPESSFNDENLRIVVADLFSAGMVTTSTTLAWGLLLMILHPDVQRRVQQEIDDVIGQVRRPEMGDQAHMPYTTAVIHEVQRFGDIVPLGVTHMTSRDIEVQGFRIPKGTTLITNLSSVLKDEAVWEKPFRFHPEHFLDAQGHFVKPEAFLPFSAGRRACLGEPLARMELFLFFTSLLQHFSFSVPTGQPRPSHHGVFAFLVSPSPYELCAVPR
Chain of Large T antigen (P03070 whole entry, the tested form may be a part): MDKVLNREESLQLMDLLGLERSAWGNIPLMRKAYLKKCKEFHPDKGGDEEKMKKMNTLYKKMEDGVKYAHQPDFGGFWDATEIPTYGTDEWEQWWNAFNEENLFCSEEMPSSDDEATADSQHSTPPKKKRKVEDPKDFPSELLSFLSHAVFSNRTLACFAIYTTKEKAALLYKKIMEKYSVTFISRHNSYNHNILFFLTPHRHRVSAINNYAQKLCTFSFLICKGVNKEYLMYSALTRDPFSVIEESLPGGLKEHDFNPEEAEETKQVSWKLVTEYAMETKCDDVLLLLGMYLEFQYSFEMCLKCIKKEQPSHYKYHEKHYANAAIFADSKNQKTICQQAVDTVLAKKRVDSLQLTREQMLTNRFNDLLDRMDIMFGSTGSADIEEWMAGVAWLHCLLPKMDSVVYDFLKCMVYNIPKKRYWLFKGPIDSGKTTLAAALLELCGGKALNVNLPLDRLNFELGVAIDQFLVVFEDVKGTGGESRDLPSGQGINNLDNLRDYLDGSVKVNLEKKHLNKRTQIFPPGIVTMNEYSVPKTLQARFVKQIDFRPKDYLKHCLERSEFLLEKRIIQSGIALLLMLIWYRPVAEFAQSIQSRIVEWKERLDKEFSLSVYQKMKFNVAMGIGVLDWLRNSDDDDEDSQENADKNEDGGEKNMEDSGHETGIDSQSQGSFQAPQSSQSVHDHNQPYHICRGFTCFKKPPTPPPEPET

AC50 [4]: 3.92 µM (active) | IC50 (Large T antigen): > 100 µM (active)
Structure (SMILES): CS(=O)(=O)N1CCc2cc(C(=O)Nc3ccc(O)cc3)ccc21

IC50 (Aminopeptidase N): 39.1 µM (active)
Structure (SMILES): CC(=O)Nc1cccc(NC(=O)C2CCCN2C(=O)Nc2cccc(C)c2)c1 (stereo not given)

AC50 [4]: 0.33 µM (active)
Structure (SMILES): CCCS(=O)(=O)N1CCCC(C(=O)NCCN(CC)c2ccccc2)C1 (stereo not given)

AC50 [4]: 3.28 µM (active)
Structure (SMILES): CCN(CC)CCC(c1ccc(N(C)C)cc1)c1c(OC)cc(OC)c2ccc(=O)oc12 (stereo not given)

IC50 (Aminopeptidase N): 26.9 µM (active)
Structure (SMILES): COc1cccc(C(=O)NC2CCN(CC(=O)NCc3ccccc3OC)CC2)c1

AC50 [4]: 1.44 µM (active)
Structure (SMILES): CC(C)n1cnc2cc(NCc3ccccc3O)ccc21

EC50 [5]: > 300 µM (not active) | EC50 [8]: 46.8 µM (active)
Structure (SMILES): CC1(C)c2[nH]c3ccccc3c2C[C@@H]2C(=O)N(c3ccc(F)cc3F)C(=O)N21

IC50 (Aminopeptidase N): 48.7 µM (active)
Structure (SMILES): O=C(Cn1c(SCc2ccccc2)nc2ccccc21)N1CCOCC1

AC50 [4]: 6.23 µM (active)
Structure (SMILES): Cc1ccc(NC(=O)Nc2cccs2)cc1

AC50 [4]: 0.867 µM (active)
Structure (SMILES): COc1cc(SC)ccc1C(=O)Nc1c(Cl)cncc1Cl

IC50 [3]: > 80 µM (inactive)
Structure (SMILES): O=C(Nc1nnc(S(=O)(=O)N2CCOCC2)s1)c1cccc(Br)c1

EC50 [5]: > 300 µM (not active) | EC50 [8]: > 300 µM (not active)
Structure (SMILES): CC1(OC(=O)c2cnc3ccccc3n2)C(=O)C=C2C=C(C3CC3)OC=C2C1=O (stereo not given)

AC50 [4]: 7.27 µM (active)
Structure (SMILES): C=CCn1c(S)nnc1-c1cccc(OC)c1

IC50 (Aminopeptidase N): 41 µM (active)
Structure (SMILES): O=C(O)CSc1c(O)nc2ccc(Cl)cc2c1-c1ccccc1

The remaining lines, values behind:

Structure (SMILES): CNC(=O)c1cc2c(=O)n3cccc(C)c3nc2n(C(C)C)c1=N
IC50 (Aminopeptidase N): 65.6 µM (active)

Structure (SMILES): CC(=O)Nc1ccc(NS(=O)(=O)c2cc(-c3nnc(O)c4ccccc34)ccc2C)cc1
IC50 (H9c2): > 79 µM (inactive)

Structure (SMILES): Cn1c(=O)c2c(nc(N/N=C/c3ccc(OC(=O)c4ccco4)cc3)n2Cc2ccccc2Cl)n(C)c1=O
EC50 [1]: 13.4 µM (active) | EC50 [2]: 14.6 µM (active)

Structure (SMILES): COc1ccc(N2C(=O)/C(=C/c3cccs3)NC2=S)cc1
IC50 [3]: > 80 µM (inactive)

Structure (SMILES): Cc1ccsc1/C=N/NC(=O)c1cccc(S(=O)(=O)Nc2ccccc2Cl)c1
IC50 [3]: > 80 µM (inactive)

Structure (SMILES): Cn1c(O)nc2cc(Cl)cnc21
EC50 [5]: 27 µM (active) | IC50 [6]: > 66 µM (inactive) | IC50 [7]: 35.1 µM (inactive) | EC50 [8]: 24.8 µM (active)

Structure (SMILES): Cc1ccc([N+](=O)[O-])cc1/N=N/c1c(C)[nH]n(C(N)=S)c1=O
AC50 [4]: 5.04 µM (active)

Structure (SMILES): COc1ccc(/C=N/NC(=O)CCCOc2ccc(Cl)cc2Cl)cc1[N+](=O)[O-]
EC50 [1]: 281 µM (active) | EC50 [2]: 59.7 µM (active) | AC50 (Cytochrome P450 2D6): 10 µM (inconclusive)

Structure (SMILES): CCOC(=O)c1c(C)[nH]c(C)c1C(=O)COc1ncnc2cc([N+](=O)[O-])ccc12
EC50 [9]: > 260 µM (inactive) | IC50 (H9c2): 26.4 µM (active)

Structure (SMILES): Nc1nonc1-c1nc2ccccc2n1CC(=O)N/N=C/c1ccc(-c2cccc(C(=O)O)c2)o1
IC50 (Aminopeptidase N): 12.5 µM (active) | EC50 [10]: 4.28 µM (active) | EC50 (Streptococcus): 4.63 µM (active)

Structure (SMILES): COc1ccc2c(c1)O[C@H](c1ccc3c(c1)OCO3)[C@@H](OC(=O)N[C@H](C)C1CCCCC1)C2=O
EC50 [1]: 11.6 µM (active) | EC50 [2]: 10.4 µM (active)

Structure (SMILES): CCC(=O)OC1(C)C(=O)C=C2C=C(c3ccc(C#N)cc3)OC=C2C1=O (stereo not given)
EC50 [5]: 85.4 µM (active) | EC50 [8]: 40.8 µM (active)

Structure (SMILES): COc1ccc(/C=C/C(=O)c2ccc(NC(=O)c3cccs3)cc2)cc1OC
EC50 [1]: 3.5 µM (active) | EC50 [2]: 3.01 µM (active)

Structure (SMILES): CC(OC(=O)CCc1nc(O)c2ccccc2n1)C(=O)NCc1ccc2c(c1)OCO2 (stereo not given)
IC50 (H9c2): > 79 µM (inactive)

Structure (SMILES): CCOc1cc(C2C3=C(O)CCCC3=NC3=C2C(=O)CCC3)cc(Cl)c1O (stereo not given)
IC50 (Aminopeptidase N): 23.9 µM (active)

Structure (SMILES): CCOC(=O)c1nc(Nc2ccc(C(C)=O)cc2)c2ccccc2n1
IC50 (H9c2): 8.56 µM (active)

Structure (SMILES): COc1ccc(C(=O)Nc2sc3c(c2C(=O)O)CC(C)(C)OC3)cc1
IC50 [3]: > 80 µM (inactive)

Structure (SMILES): NS(=O)(=O)c1ccc(CCNc2ccn3nc(-c4ccc(OCCN5CCOCC5)cc4)cc3n2)cc1
IC50 (H9c2): > 79 µM (inactive)

Structure (SMILES): NC(=O)c1nsc(C(=O)N(Cc2ccco2)C(C(=O)NCc2ccccc2)c2ccc(O)cc2)c1N (stereo not given)
IC50 (H9c2): > 79 µM (inactive)

Structure (SMILES): COc1ccc(-c2cc(=O)c3ccccc3[nH]2)cc1
IC50 (H9c2): > 79 µM (inactive)

Structure (SMILES): Oc1c(Br)cc(Cl)cc1/C=N/c1ccccc1Br
IC50 (H9c2): > 79 µM (inactive)
